Source: patent publication US10350213B2 (AI Therapeutics, Inc., priority 2015, dated 2019)
Where two headings read alike, the source gives them in different places.

How the values were obtained:
[1] = test system: A549 (Human lung carcinoma); assay: CellTiterGlo cell viability assay; assay type: cell-based
[2] = test system: NCI-H1781 (Human bronchioalveolar); assay: CellTiterGlo cell viability assay; assay type: cell-based
[3] = test system: 456 kinases (PIKfyve not included); assay: Kinase panel binding screen (DiscoveRx); settings: screening concentration 1 μM
Description: Next, apilimod was screened against a comprehensive panel of kinases (PIKfyve not included).

[4] = test system: WSU-DLCL2 (Human Diffuse Large B Cell Lymphoma -GCB); assay: CellTiterGlo cell viability assay; assay type: cell-based
[5] = test system: H358 (Human lung carcinoma); assay: CellTiterGlo cell viability assay; assay type: cell-based; settings: NCI-H358
[6] = test system: Jurkat (Human T-cell leukemia); assay: CellTiterGlo cell viability assay; assay type: cell-based
[7] = test system: HDLM-2 (Human Hodgkin's lymphoma); assay: CellTiterGlo cell viability assay; assay type: cell-based
Description: (§1) Briefly, test compounds (5 μl stock solution, 6×desired final well concentration) were dispensed to 384-well assay plates, TSC2−/− MEF cells (1000 cells per well in 25 μL of media) were added to the plates and the plates were incubated for 72 h (3 days) at 37° C. under an atmosphere of 5% CO2 in a humidified incubator for 3 days. Cell viability was determined with CellTiter-Glo® luminescence assay (Promega) per the manufacturer's instructions. Viability was expressed as a percentage of untreated control cells.
(§2) 35 cell lines were identified as sensitive to apilimod-induced cytotoxicity in this assay. The apilimod-sensitive cells included cells derived from several different cancers including non-Hodgkin's lymphoma, Hodgkin's lymphoma, colorectal cancer, and lung cancer. The most sensitive of those tested were non-Hodgkin's Lymphoma (NHL) cell lines. […] The only NHL subtype not sensitive in this assay was follicular.

[8] = test system: NCI-1975 (Human lung carcinoma); assay: CellTiterGlo cell viability assay; assay type: cell-based
Description: as §1, §2

[9] = test system: L540 (Human Hodgkin's lymphoma); assay: CellTiterGlo cell viability assay; assay type: cell-based; settings: L-540
Description: as §1, §2

[10] = test system: SUDHL-6 (Human Diffuse Large B Cell Lymphoma -GCB); assay: CellTiterGlo cell viability assay; assay type: cell-based; settings: SU-DHL-6, Human DLBCL-GCB
Description: as §1, §2

[11] = test system: RKO (Human colorectal cancer); assay: CellTiterGlo cell viability assay; assay type: cell-based
Description: as §1, §2

[12] = test system: DLD-1 (Human colorectal cancer); assay: CellTiterGlo cell viability assay; assay type: cell-based
Description: as §1, §2

[13] = test system: GA-10 (Human Burkitt's lymphoma); assay: CellTiterGlo cell viability assay; assay type: cell-based
Description: as §1, §2

[14] = test system: SW1116 (Human colorectal cancer); assay: CellTiterGlo cell viability assay; assay type: cell-based; settings: SW 1116
Description: as §1, §2

[15] = test system: Namalwa (Human Burkitt's lymphoma); assay: CellTiterGlo cell viability assay; assay type: cell-based
Description: as §1, §2

[16] = test system: NCI-H1666 (Human bronchioalveolar); assay: CellTiterGlo cell viability assay; assay type: cell-based
Description: as §1, §2

[17] = test system: SW1573 (Human bronchioalveolar); assay: CellTiterGlo cell viability assay; assay type: cell-based
Description: as §1, §2

[18] = test system: LnCap (Human prostate cancer); assay: CellTiterGlo cell viability assay; assay type: cell-based
[19] = test system: SUDHL-6 human DLBCL cancer xenograft; assay: Subcutaneous SUDHL-6 human DLBCL cancer xenograft model; assay type: in vivo, NOD-SCID mice
Description: The tumor cells were sub-cultured twice weekly and harvested during exponential growth for tumor inoculation. NOD-SCID mice were γ-irradiated 24 hrs before inoculation. Each mouse was inoculated subcutaneously in the right flank with SU-DHL-6 tumor cells (5×10^6) in 0.1 ml of PBS with Matrigel (1:1). The tumors were then grown to a mean size of approximately 80-120 mm^3 and the mice were then split into 5 groups and treated as detailed in the Table 5.
Tumor size was measured twice a week in two dimensions using a caliper, and the volume is expressed in mm^3 using the formula: V=0.5 a×b^2 where a and b are the long and short diameters of the tumor, respectively.
Each mouse was inoculated subcutaneously in the right flank with SU-DHL-6 tumor cells (5×10^6) in 0.1 ml of PBS with Matrigel (1:1). The tumors were then grown to a mean size of approximately 80-120 mm^3 and the mice were then split into 6 groups and treated as detailed in the Table 6.

[20] = test system: H4 neuroglioma cells; assay: Endolysosomal (vacuole) phenotype, DIC images; assay type: cell-based, Human; settings: 100 nM apilimod, 24 hrs
Description: PIKfyve produces the lipid products PI(3,5)P2 and PI5P, which in turn serve to establish membrane identity and control endolysosomal dynamics. Studies have shown that the PI(3,5)P2 depletion arising from inhibition of PIKfyve produces a swollen endolysosome phenotype. […] This phenotype was reversible, and cancer cell lines reverted to normal appearance within 3-4 days after drug removal.

[21] = test system: 22RV1 (Human prostate cancer); assay: CellTiterGlo cell viability assay; assay type: cell-based
[22] = test system: all cell lines; assay: Longer cell viability assays (3, 5, and 7 days); assay type: cell-based; settings: 168 h, 7-day exposure
Description: (§3) This is exemplified in FIG. 2A for the HCT116 colorectal carcinoma cells. […] And all NHL subtypes were sensitive in this assay, including mantle, follicular, Burkitt's, DLBCL-ABC, DLBCL-GCB, and double-hit DLBCL.

[23] = test system: AsPC1 (Human pancreatic cancer); assay: CellTiterGlo cell viability assay; assay type: cell-based
[24] = test system: H4 (Human neuroglioma); assay: CellTiterGlo cell viability assay; assay type: cell-based
[25] = test system: SW780 (Human Bladder carcinoma (GATOR−/−)); assay: CellTiterGlo cell viability assay; assay type: cell-based
[26] = test system: NHL cell lines; assay: 7 day cell viability assay, NHL cell lines; assay type: cell-based; settings: 7 day assay; for IC50: 168 h
Description: as §3

For `Cc1cccc(/C=N/Nc2cc(N3CCOCC3)nc(OCCc3ccccn3)n2)c1` [apilimod], the IC50 [1] was 110 nM, the IC50 [2] was > 20000 nM and the “binding to kinase panel” value [3] was “did not bind to any of the 456 kinases tested”. The IC50 ([4]; Homo sapiens, WSUDLCL2, 72 h, three-day assay, read-out: IC50 (nM) WSU-DLCL2) was 54 nM, the IC50 ([4]; WSUDLCL2, Human DLBCL-GCB, read-out: IC50) was 160 nM and the IC50 [5] was > 2000 nM. The IC50 [6] was 200 nM, the IC50 [7] was > 1000 nM and the IC50 [8] was > 10000 nM. For the same molecule, the IC50 [9] was > 1000 nM, the IC50 [10] was 80 nM and the IC50 [11] was > 5000 nM. For the same molecule, the IC50 [12] was > 5000 nM, the IC50 [13] was 382 nM and the IC50 [14] was 1500 nM. The IC50 [15] was 600 nM, the IC50 [16] was 20000 nM and the IC50 [17] was > 20000 nM. The IC50 [18] was 3000 nM, the tumor growth inhibition ([19]; 75 mg/kg apilimod free base p.o. QD×5, 2 days off, QD×5, 31 days) was 57% and the “effect on body weight” value ([19]; all apilimod treatment arms, i.v. and p.o., 29 days) was “negligible effect on body weight”. The “reduction of tumor size” value ([19]; apilimod dimesylate 67.5 mg/kg (47 mg/kg free base) i.v. QD×5, 2 days off, QD×5, 29 days) was 58%, the “reduction of tumor growth” value ([19]; apilimod free base p.o. 150 mg/kg single dose (QD×5, 2 days off), 29 days) was 64% and the “reduction of tumor growth” value ([19]; apilimod free base p.o. 150 mg/kg split dose (75 mg/kg BID×5, 2 days off, BID×5), 29 days) was 68%. The cell phenotype [20] was “striking swollen endolysosomal (vacuole) phenotype”, the IC50 [21] was > 5000 nM and the IC50 [22] was < 125 nM. For the same molecule, the IC50 [23] was > 2000 nM, the IC50 [24] was 250 nM and the IC50 [25] was 1000 nM. For the same molecule, the “share of NHL cell lines sensitive to apilimod” value ([26]; 32 NHL cell lines tested) was 72%, the IC50 ([26]; different NHL subtypes, read-out: IC50) was < 125 nM and the IC50 ([26]; sensitive NHL cell lines, read-out: average IC50) was 69 nM.
